“Also recorded” adds a separate entry of the source.
Tests used:
PPP2R2B = assay: RT-PCR analysis of PPP2R2B expression; type: cell-based, human; conditions: DLD1 cells, 5 μM for 3 days
Method: For RT-PCR, total RNA was reverse-transcribed using oligo(dT)12-18 primer (SEQ ID NO: 6)with Superscript II reverse transcriptase (Invitrogen). 100 ng of cDNA was used for PCR. The primers PPP2R2B F: 5′ […] 3′ (SEQ ID NO: 7) and PPP2R2B R: 5′ (SEQ ID NO: 8) […] 3′ were used to amplify the PPP2R2B cDNA.

p-Myc(T58/S62) = assay: Immunoblot analysis of Myc phosphorylation; type: cell-based, human; conditions: for effect on rapamycin-induced Myc phosphorylation: BX912 2.5 μM or PIK90 5 μM with rapamycin 10 nM
[1] = test system: HEK-TERV cells transformed with PDK1, Myc, shPTEN or PI3K E545K; assay: Cell viability / proliferation of transformed HEK-TERV cells with PLK1 inhibitors; type: cell-based, human
human cancers = conditions: also with intermittent dosing schedule; cited from earlier work
[2] = cited from earlier work
[3] = test system: behavioral tasks and aggregate formation; conditions: mouse model of HD; cited from earlier work
p-AKT (S473) = assay: Immunoblot analysis of AKT S473 phosphorylation; type: cell-based, human; conditions: for effect on AKT S473 phosphorylation: BX912 2.5 μM or PIK90 5 μM with rapamycin 10 nM, 48 hr
IgE-like antibodies = conditions: in vivo; cited from earlier work
Candida albicans = conditions: in vitro and in vivo; cited from earlier work
DLD1-PPP2R2B cells [4] = assay: Cell cycle analysis by flow cytometry in DLD1-PPP2R2B cells; type: cell-based, human; conditions: rapamycin added to Dox-induced PPP2R2B expression, 48 h
Method: (§1) In brief, 1000 cells were seeded in 96-well plate and the cell number was measured following manufacturer's instruction. To detect the senescence in DLD1-tet on cells, cells were treated with Dox for 48 hr and SA-β-Gal staining was performed according to the protocol of Senescence Detection kit (BioVision). Cell cycle analysis was done by DNA content quantification.
(§2) The cells were fixed with 70% ethanol and stained with propidium iodide (50 μg/ml) staining. The stained cells were analyzed by FACScalibur (BD Bioscience) and quantified by using CellQuest software (BD bioscience).

cytochrome P-450 3A = conditions: cited from earlier work
[5] = test system: experimental allergic encephalomyelitis; conditions: model for multiple sclerosis; cited from earlier work
DLD1-PPP2R2B cells [6] = assay: Xenograft tumor growth of DLD1-PPP2R2B cells in nude mice; type: in vivo, BALB/c nude mice
Method: The female athymice BALB/c nude mice (5-8 week-old) were housed in the Biological Resource Centre. Mice were implanted subcutaneously in both sides of flank with 3×10^6 DLD1-PPP2R2B or control DLD1 cells, respectively.
When tumors reached ˜70 mm^3, the mice were divided two groups (6 mice per group) and the Doxycyclin was administrated by oral gavages at 100 mg/kg daily. Tumor progress was monitored with whole body weight and tumor size for every other day. For combination treatment with rapamycin and doxycycline, the same dose of doxycyclin was given at every other day and rapamycin was administered by intraperitoneal injection at 4 mg/kg at Day 3, 5, 7 and 11.
Tumor diameters were measured every 3-4 days with caliper and tumor volumes were calculated from 7-9 mice per data time point. All animal work was performed in accordance with animal experiments guidelines of Singapore.

DLD1-PPP2R2B cells [7] = assay: Dense foci / colony formation assay in DLD1-PPP2R2B cells; type: cell-based, human; conditions: 10 nM rapamycin, PPP2R2B re-expressed by Dox vs no Dox, 14 days
Method: For DLD1 and HCT116 inducible cells foci formation assay, 1×10^4 cells were seeded on 6-well plate with or without treatment with Dox or rapamcycin. Cells were grown for 2 weeks and the surviving colonies were stained with gentian violet after methanol fixation, and visible colonies (>50 cells) were counted.

[8] = animal models; cited from earlier work
[9] = bile of treated rats; cited from earlier work
HCT116 and DKO cells = assay: Rapamycin-induced growth inhibition in HCT116 and DKO cells; type: cell-based, human; conditions: DKO cells compared to parental HCT116 cells
Method: (§3) Cell viability was measured using CellTiter-Glo™ Luminescent Cell Viability Assay (Promega).
as §1

[10] = test system: huntingtin accumulation and cell death; conditions: cell models of HD; cited from earlier work
CRC cell lines = assay: Cell viability (CellTiter-Glo): rapamycin-induced growth inhibition in CRC cell lines; type: cell-based; conditions: Homo sapiens, 120 h; 10 nM rapamycin, 5 days treatment, all examined CRC cell lines; read-out: rapamycin-induced growth inhibition compared to untreated cells
Method: as §3, §1

[11] = test system: p70S6K and S6 phosphorylation; assay: Immunoblot analysis of p70S6K and S6 phosphorylation; type: cell-based, human; conditions: DLD1 vector control and PPP2R2B expressing cells, 10 nM rapamycin
DLD1-PPP2R2B cells [12] = assay: Cell viability assay in DLD1-PPP2R2B cells; type: cell-based, human; conditions: 10 nM rapamycin, PPP2R2B re-expressed by Dox vs no Dox, 5 days
Method: as §3, §1

[13] = test system: PPP2R2B-expressing cancer cell lines; assay: Rapamycin-induced growth inhibition in PPP2R2B-expressing cancer cell lines; type: cell-based, human; conditions: 10 nM rapamycin, 5 days; compared to CRC cell lines
Method: as §3, §1

adjuvant arthritis = conditions: model for rheumatoid arthritis; cited from earlier work
neurodegeneration = conditions: fly model of HD; cited from earlier work
SW480 and DLD1 cells = assay: G2/M phase arrest by PI staining and FACS in SW480 and DLD1 cells; type: cell-based, human; conditions: BX912 2.5 μM or PIK90 with rapamycin 10 nM, 48 h
Method: as §1, §2

SW480 cells = assay: Morphologies of SW480 cells under treatment; type: cell-based, human
DLD1 and SW480 cells [14] = assay: Monolayer dense foci / colony formation of DLD1 and SW480 cells; type: cell-based, human; conditions: BX912 2.5 μM plus rapamycin 10 nM, 2-week colony formation assay
Method: For DLD1 and HCT116 inducible cells foci formation assay, 1×10^4 cells were seeded on 6-well plate with or without treatment with Dox or rapamcycin. […]

DLD1 and SW480 cells [15] = assay: Cell viability of DLD1 and SW480 cells under drug combinations; type: cell-based, human; conditions: BX912 2.5 μM plus rapamycin 10 nM, 5-day cell viability assay
Method: as §3, §1

[16] = DLD1 cells serum starved 48 h, then 10 nM rapamycin

Nc1ncn([C@H]2C[C@H](O)[C@@H](CO)O2)c(=O)n1 [5-aza-dC]
PPP2R2B expression (PPP2R2B): re-expression of PPP2R2B

Cn1c(=O)n(-c2ccc(C(C)(C)C#N)cc2)c2c3cc(-c4cnc5ccccc5c4)ccc3ncc21 [BEZ235]
Myc phosphorylation (p-Myc(T58/S62); DLD1 cells, BEZ 235 100 nM, 48 hr): induced Myc phosphorylation

COc1cc2ncn(-c3cc(OCc4ccccc4C(F)(F)F)c(C(N)=O)s3)c2cc1OC [GW843682X]
selectivity of inhibition of proliferation / cell viability (dose-response) ([1]; HEK-PDK1 and HEK-Myc vs HEK-PMN and HEK-shPTEN cells, 4 days): more selectively decrease the cell viability of PDK1 or Myc-transformed cells; also recorded: more selectively inhibit the proliferation of PDK1 or Myc-transformed HEK cells | growth inhibition in kinase inhibitor screen ([1]; HEK-PDK1 cells compared to HEK-vector control cells (PMN)): selective growth inhibition effect

CO[C@H]1C[C@@H]2CC[C@@H](C)[C@@](O)(O2)C(=O)C(=O)N2CCCC[C@H]2C(=O)O[C@H]([C@H](C)C[C@@H]2CC[C@@H](OC(=O)C(C)(CO)CO)[C@H](OC)C2)CC(=O)[C@H](C)/C=C(\C)[C@@H](O)[C@@H](OC)C(=O)[C@H](C)C[C@H](C)/C=C/C=C/C=C/1C [CCI 779, rapamycin 42-[2,2-bis(hydroxymethyl)propionate]]
growth of cancers (human cancers): inhibit the growth of a diverse range of cancer types | water solubility [2]: water soluble | behavioral performance and aggregate formation [3]: improved performance on 4 different behavioral tasks and decreased aggregate formation

Oc1cccc(-c2nc(N3CCOCC3)c3oc4ncccc4c3n2)c1 [PIK-103]
AKT S473 phosphorylation (p-AKT (S473); DLD1 cells, 0.5 μM): reduced AKT 5473 phosphorylation | Myc phosphorylation (p-Myc(T58/S62); DLD1 cells, 0.5 μM): enhanced Myc phosphorylation

CO[C@H]1C[C@@H]2CC[C@@H](C)[C@@](O)(O2)C(=O)C(=O)N2CCCC[C@H]2C(=O)O[C@H]([C@H](C)C[C@@H]2CC[C@@H](O)[C@H](OC)C2)CC(=O)[C@H](C)/C=C(\C)[C@@H](O)[C@@H](OC)C(=O)[C@H](C)C[C@H](C)/C=C/C=C/C=C/1C [rapamycin, (3S,6R,7E,9R,10R,12R,14S,15E,17E,19E,21S,23S,26R,27R,34aS)-9,10,12,13,14,21,22,23,24,25,26,27,32,33,34,34a-hexadecahydro-9,27-dihydroxy-3-[(1R)-2-[(1S,3R,4R)-4-hydroxy-3-methoxycyclohexyl]-1-methylethyl]-10,21-dimethoxy-6,8,12,14,20,26-hexamethyl-23,27-epoxy-3H-pyrido[2,1-c][1,4]-oxaazacyclohentriacontine-1,5,11,28,29(4H,6H,31H)-pentone]
formation of IgE-like antibodies (IgE-like antibodies): effectively inhibited | antifungal activity (Candida albicans): antifungal activity | cell cycle G2 arrest (DLD1-PPP2R2B cells [4]): markedly augmented | number of metabolites formed (cytochrome P-450 3A): at least six metabolites | efficacy [5]: effective | xenograft tumor growth, single treatment (DLD1-PPP2R2B cells [6]; rapamycin 4 mg/kg i.p. or Dox 100 mg/kg oral alone, every other day): moderately attenuated | xenograft tumor growth, combination of rapamycin and Dox (DLD1-PPP2R2B cells [6]; rapamycin 4 mg/kg plus Dox 100 mg/kg (PPP2R2B re-expression)): strong tumor growth inhibition | rapamycin-induced growth inhibition (colony formation assay) (DLD1-PPP2R2B cells [7]): much more effective | nephrotoxicity [8]: no nephrotoxicity has been detected | number of hydroxylated and demethylated metabolites detected [9]: > 16 | sensitivity to rapamycin treatment (HCT116 and DKO cells): more sensitive | huntingtin accumulation and cell death [10]: attenuates huntingtin accumulation and cell death | AKT S473 phosphorylation (p-AKT (S473); CRC cells (DLD1), 10 nM rapamycin): induction of AKT S473 phosphorylation | rapamycin-induced AKT S473 phosphorylation under serum starvation (p-AKT (S473); [16]): abolished | AKT S473 phosphorylation (p-AKT (S473); HCT116 and DKO cells, 10 nM rapamycin): similarly induced | AKT S473 phosphorylation (p-AKT (S473); PPP2R2B-expressing cancer cell lines): consistent induction of AKT S473 phosphorylation | inhibition at 0.01 µM (CRC cell lines): < 10% | p70S6K and S6 phosphorylation [11]: effectively abolished | rapamycin-induced growth inhibition (cell viability assay) (DLD1-PPP2R2B cells [12]): much more effective | sensitivity to rapamycin [13]: much more sensitive | efficacy (adjuvant arthritis): effective | neurodegeneration (neurodegeneration): protects against neurodegeneration | Myc phosphorylation (p-Myc(T58/S62); DKO (DNMTs-deficient HCT116) cells, 10 nM rapamycin): did not respond to rapamycin | rapamycin-induced Myc phosphorylation under serum starvation (p-Myc(T58/S62); [16]): no significant effect | Myc phosphorylation and protein accumulation (p-Myc(T58/S62); DLD1 cells, 10 nM rapamycin, 48 hr): strong induction of Myc phosphorylation and protein accumulation; also recorded: induces Myc phosphorylation | time at which the Myc response occurred (p-Myc(T58/S62); DLD1 cells, 10 nM rapamycin, time course): 4 h | Myc phosphorylation (p-Myc(T58/S62); HCT116 cells, 10 nM rapamycin): strongly induced | Myc phosphorylation (p-Myc(T58/S62); PPP2R2B-expressing cancer cell lines (HepG2, HepB3, 786-O, Caki2, OVCAR3, OVCAR5, SK-OV-3, U2OS)): none of these PPP2R2B-expressing cancer cell lines showed an induction of Myc phosphorylation | Myc phosphorylation (p-Myc(T58/S62); all examined CRC cell lines, rapamycin 48 hr): marked induction of Myc phosphorylation

COc1ccc2c(c1OC)N=C(NC(=O)c1cccnc1)N1CCN=C21 [PIK90]
G2/M arrest in combination with rapamycin (SW480 and DLD1 cells): not | morphological change (SW480 cells): not | effect on AKT S473 phosphorylation (p-AKT (S473); DLD1 cells): effectively abolished the AKT S473 phosphorylation | effect on rapamycin-induced Myc phosphorylation (p-Myc(T58/S62); DLD1 cells, 48 hr): unable to inhibit rapamycin-induced Myc phosphorylation

O=C(Nc1cccc(Nc2ncc(Br)c(NCCc3cnc[nH]3)n2)c1)N1CCCC1 [BX912]
loss of cell viability in combination with rapamycin (colony formation) (DLD1 and SW480 cells [14]): synergistic loss of cell viability | G2/M arrest in combination with rapamycin (SW480 and DLD1 cells): synergized with rapamycin to induce strong G2/M arrest | morphological change (SW480 cells): induced a morphological change similar to that seen upon PPP2R2B re-expression | effect on AKT S473 phosphorylation (p-AKT (S473); DLD1 cells): had no much effect on AKT S473 | loss of cell viability in combination with rapamycin (DLD1 and SW480 cells [15]): synergistic loss of cell viability | effect on rapamycin-induced Myc phosphorylation (p-Myc(T58/S62); DLD1 cells, 48 hr): abolished rapamycin-induced Myc phosphorylation
